Earlier results as cited in patent US20040052855A1, “Microparticles of biodegradable polymer encapsulating a biologically active substance and sustained release pharmaceutical formulations containing same” (priority 2003, published 2004).

Conditions: in water at 20-25° C.

Structure (SMILES)	solubility in water
ClCCl [dichloromethane]	1.32 % (by weight)
CCOC(C)=O [ethyl acetate]	8.70 % (by weight)
